{"source": "patent US20240018146A1", "about": "“COMPOSITIONS AND METHODS OF USING THE SAME FOR TREATMENT OF NEURODEGENERATIVE AND MITOCHONDRIAL DISEASE” (MITOKININ, INC., priority 2020, published 2024)", "key": {"Parkin": {"test_system": "Parkin", "assay": "Parkin recruitment to mitochondria (HeLa cells expressing YFP-tagged Parkin, longitudinal imaging)", "type": "cell-based, human", "settings": "FCCP and Oligomycin, cells with Parkin recruited at 60 minutes, FIG. 29", "procedure": "HeLa cells expressing a YFP-tagged Parkin were treated with […] of FCCP and Oligomycin followed by the specified dose of compound, then analyzed by longitudinal imaging. Percentage of cells with Parkin recruited to mitochondria at 60 minutes is shown."}, "HeLa MKYP cells [1]": {"test_system": "HeLa MKYP cells", "assay": "Cell death measured by DAPI staining, with 1 μM FCCP/oligomycin or no toxin (no FO)", "type": "cell-based", "in_short": "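HeLa MKYP cells were treated with compounds alongside 1 μM FCCP/oligomycin or no toxin for 6 or 6.5 h. Cell death was scored by DAPI staining, with H2O2 treatment as the death control.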"}, "[2]": {"assay": "Inspection of crystallization and round cells", "type": "physicochemical", "design": "key: 1=yes crystals; 0=no crystals", "procedure": "5. Inspection of Crystallization and Round Cells\nBriefly, the Hela MKYP (Mito-Keima/YFP-Parkin) cells were seeded at 10K cells/well. EP/MTK compounds were added at seeding (cells were still in suspension). The cells were incubated with the EP/MTK compounds for 16 hours, then 1 μM FCCP/oligomycin was added for 6 hours. Prior to harvesting, cells were scored by eye under 20× magnification for the presence or absence of crystalline or aggregated compound, or round cells."}, "pS129 α-syn": {"test_system": "pS129 α-syn", "assay": "Preformed fibril (PFF) model in primary neuron culture, pS129 α-syn", "type": "cell-based", "in_short": "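Primary hippocampal neurons from P0 mouse pups grown 7 days, then exposed to alpha-synuclein preformed fibrils at 5 ug/ml. Read-out is pS129 alpha-synuclein.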"}, "HeLa MKYP cells [3]": {"test_system": "HeLa MKYP cells", "assay": "Human mitophagy assay (HeLa mKeima assay, FACS)", "type": "cell-based", "settings": "for percentage of cells undergoing mitophagy: HeLa cells expressing mtKeima, FCCP and Oligomycin, FACS, FIG. 28; for EC50: Homo sapiens, HeLa", "in_short": "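HeLa cells carrying the pH-sensitive mtKeima tag incubated 16 h with compound at several concentrations, then 1 uM FCCP/oligomycin for 6 h. FACS detects mitochondria in lysosomes through the Keima emission shift, quantified as percentage of cells in mitophagy.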"}, "Gdf15, Tnfrsf12a": {"test_system": "Gdf15, Tnfrsf12a", "assay": "Cisplatin challenge, kidney expression of mitochondrial-stress related genes (quantitative PCR)", "type": "in vivo, mice (C57Bl/6)", "settings": "10 mg/kg cisplatin i.p., oral gavage QD for three days", "procedure": "(§1) Mice were provided at least one week of acclimation to the animal facility and group housed. Mice were injected intraperitoneally with 1 mg/ml cisplatin solution (BluePoint Labs) or 10 ml/kg sterile-filtered saline using 29G insulin syringes. Mice were weighed and administered vehicle, 35985 or 40180 by oral gavage per the dosing regimens noted in the figures. Mice were monitored for excessive weight loss and euthanized if moribund.\n(§2) 35985 and 40180 are formulated at ten-fold the dosing concentration in NMP (N-methylpyrrolidone) followed by dilution with solutol-15 and water for a final vehicle concentration of 10% NMP/10% solutol-15/80% water.\nRNA was isolated from kidney samples using Rneasy Mini kit (Qiagen) according to its product manual. RNA concentration was measured using NanoDrop™ 2000/2000c Spectrophotometers (Thermo Scientific). 50 ng of RNA for each sample was used to generate cDNA. cDNA was synthesized using High-Capacity RNA-to-cDNA™ Kit (Thermo Scientific) according to its product manual. Quantitative PCR was performed using Power SYBR™ Green PCR Master Mix (Applied Biosystems) according to its product manual. The following primers were used to analyze gene expression levels in the kidney: […]\nAll gene expression levels were normalized to expression levels of beta-actin using ΔΔCt and expressed as fold change relative to cisplatin vehicle treated mice. […]"}, "pathologic (pS129) α-syn": {"test_system": "pathologic (pS129) α-syn", "assay": "In vivo α-syn (PFF) model, pathologic pS129 α-syn in striatum", "design": "species or system mice", "settings": "oral BID dosing at 50, 25, 12.5, and 6.25 mg/kg", "procedure": "FIG. 9A and FIG. 9B show representative in vivo data of EP-0040180 in an α-syn (PFF) model.\nMouse and human alpha-synuclein monomers have been sourced commercially, then pre-formed fibrils have been generated as per the detailed protocol provided by the MJFF. For in vitro experiments primary hippocampal neurons isolated from P0 pups were grown for 7 days after which PFFs at 5 ug/ml were introduced Pre-formed fibrils will be introduced via stereotactic injection into the striatum of wt (C57BL/6J, Jax #000664) and transgenic A53T mice (B6;C3-Tg(Prnp-SNCA*A53T)83Vle/J, Jax #004479). Cohorts of drug-treated (oral gavage) and untreated animals will then be allowed to age for up to 6 months, at which point they will be sacrificed and perfused. Brains will be removed and fixed, then sectioned for analysis. We anticipate that untreated A53T animals will show significant spreading of aggregated alpha-synuclein pathology and pS129 staining, as well as some possible neurodegeneration; wt animals are also expected to show pS129 synuclein staining and synuclein aggregation, albeit less than that seen in the A53T background."}, "KIM-1": {"test_system": "KIM-1", "assay": "Cisplatin challenge, kidney injury marker (KIM-1) in urine", "type": "in vivo, mice (C57Bl/6)", "settings": "10 mg/kg cisplatin i.p., oral gavage QD, day 3 post-challenge", "procedure": "as §1, §2\nUrine was collected from scruffed mice (serial collection) or directly from bladder using insulin syringe during harvest (terminal collection). KIM-1 was measured in mouse urine using R&D System's Mouse TIM-1/KIM-1/HAVCR DuoSet ELISA following manufacturer's published protocol.\nReferring to FIG. 36, mice (C57Bl/6) were challenged with a single intraperitoneal dose of 10 mg/kg cisplatin or saline and dosed by oral gavage once per day (QD) with 40180."}, "[4]": {"assay": "Mitotoxicity / Mitotox safety margin (therapeutic window)", "type": "cell-based"}, "cleaved caspase-3": {"test_system": "cleaved caspase-3", "assay": "Cleaved caspase-3 levels in primary neuron culture", "type": "cell-based", "settings": "compared with toxins"}}, "note": "Entries after “also recorded” stand apart in the source; their conditions may differ. Where two headings read alike, the source gives them in different places."}
{"smiles": "FC(F)(F)c1cc2c(NC3CCCc4ccccc43)ncnc2[nH]1", "note": "(single isomer, unassigned) [EP-0035985]", "values": [{"measurement": "Parkin recruitment to mitochondria", "setting": "Parkin", "result": "accelerate recruitment of Parkin to mitochondria; also recorded: dose responsive increase in the rate of Parkin recruitment to mitochondria"}, {"measurement": "E105 death at 8.3 μM (no FO)", "setting": "HeLa MKYP cells [1]; 8.3 μM compound, no FO", "result": 2.54}, {"measurement": "E104 death at 25 μM (no FO)", "setting": "HeLa MKYP cells [1]; 25 μM compound, no FO", "result": 3.01}, {"measurement": "E103 max death with 1 μM FO", "setting": "HeLa MKYP cells [1]; with 1 μM FO", "result": 8.14}, {"measurement": "visual inspection of crystallization", "setting": "[2]; 0.1 μM compound", "result": 0}, {"measurement": "visual inspection of crystallization", "setting": "[2]; 0.3 μM compound", "result": 0}, {"measurement": "visual inspection of crystallization", "setting": "[2]; 0.9 μM compound", "result": 0}, {"measurement": "visual inspection of crystallization", "setting": "[2]; 2.8 μM compound", "result": 0}, {"measurement": "visual inspection of crystallization", "setting": "[2]; 8.3 μM compound", "result": 0}, {"measurement": "visual inspection of crystallization", "setting": "[2]; 25.0 μM compound, HeLa MKYP culture, 20× magnification", "result": 0}, {"measurement": "pathological α-synuclein levels in primary neurons", "setting": "pS129 α-syn; FIG. 8A-C", "result": "reduce pathological α-synuclein levels"}, {"measurement": "E102 max mitophagy, fold over DMSO", "setting": "HeLa MKYP cells [3]; 1 μM FCCP/oligomycin", "result": 4.43, "unit": "fold over DMSO"}, {"measurement": "percentage of cells undergoing mitophagy", "setting": "HeLa MKYP cells [3]", "result": "induce mitophagy in a dose dependent manner; also recorded: dose responsive increase in the percentage of cells undergoing mitophagy"}, {"measurement": "EC50", "setting": "HeLa MKYP cells [3]; mitophagy, 1 μM FCCP/oligomycin, read-out: E100 EC50", "result": 330, "unit": "nM"}, {"measurement": "E101 lowest effective dose", "setting": "HeLa MKYP cells [3]; mitophagy, 1 μM FCCP/oligomycin", "result": 0.31, "unit": "µM"}]}
{"smiles": "c1ccc2c(c1)OC[C@H](N1CCOCC1)[C@H]2Nc1ncnc2[nH]c(C3CC3)cc12", "note": "(single isomer, unassigned) [EP-0040180]", "values": [{"measurement": "Parkin recruitment to mitochondria", "setting": "Parkin", "result": "accelerate recruitment of Parkin to mitochondria; also recorded: dose responsive increase in the rate of Parkin recruitment to mitochondria"}, {"measurement": "Highest safe dose (cytotoxicity; no FO; safe means DAPI+ <20%)", "setting": "HeLa MKYP cells [1]; no FO, safe means DAPI+ <20%", "result": 25.0, "unit": "µM"}, {"measurement": "Max % death with 1 μM FO", "setting": "HeLa MKYP cells [1]; with 1 μM FO", "result": 10.4, "unit": "%"}, {"measurement": "pS129 α-syn (250-12) in primary neuron culture", "setting": "pS129 α-syn; increasing doses", "result": "reduces"}, {"measurement": "pS129 α-syn (monomer) in primary neuron culture", "setting": "pS129 α-syn; increasing doses", "result": "reduces"}, {"measurement": "pS129 α-syn in primary neuron culture", "setting": "pS129 α-syn; increasing doses", "result": "reduces"}, {"measurement": "expression of mitochondrial-stress related genes Gdf15 and Tnfrsf12a in kidney", "setting": "Gdf15, Tnfrsf12a", "result": "reduced expression of these genes in a dose-responsive manner; also recorded: reduces expression of mitochondrial-stress related genes"}, {"measurement": "percentage of cells undergoing mitophagy", "setting": "HeLa MKYP cells [3]", "result": "induce mitophagy in a dose dependent manner; also recorded: dose responsive increase in the percentage of cells undergoing mitophagy"}, {"measurement": "EC50", "setting": "HeLa MKYP cells [3]; read-out: Mitophagy induction EC50", "result": 260, "unit": "nM"}, {"measurement": "pathologic (pS129) α-syn (250-12) from the striatum induced by PFF challenge", "setting": "pathologic (pS129) α-syn", "result": "significantly reduces"}, {"measurement": "pathologic (pS129) α-syn (monomer) from the striatum induced by PFF challenge", "setting": "pathologic (pS129) α-syn", "result": "significantly reduces"}, {"measurement": "KIM-1 (kidney-injury marker 1), urine", "setting": "KIM-1", "result": "dose-dependent rescue of KIM-1; also recorded: reduces KIM-1"}, {"measurement": "Mito-Safety Index (highest safe dose/EC50)", "setting": "[4]; highest safe dose/EC50", "result": 97.54}, {"measurement": "Highest safe dose (μM) (mitotox or cytotox)", "setting": "[4]; mitotox or cytotox", "result": 25.0, "unit": "µM"}, {"measurement": "cleaved caspase-3 levels", "setting": "cleaved caspase-3", "result": "do not significantly alter"}]}
